The target in assay [1] is T1, USP32 FL (USP32FL, USP32WT) (Homo sapiens, UniProt Q8NFA0). The assay can be described thus: UbRhoMP fluorescence intensity assay, […] min preincubation. The assay is classed as biochemical.
Assay [2] concerns the target T1, USP32 FL (USP32FL, USP32WT). The assay is classed as biochemical. Particulars: 500 nM UbRhoMP, pH 7.6, 1 mM TCEP, RT; covalent.
Assay [3] has the same target. The assay can be described thus: biochemical. Particulars: read-out: kinact (s^-1).
Assay [4] has the same target. The note with it: read-out: Ki; covalent.

The values that follow come from paper doi:10.1101/2025.04.19.649632v1 (biorxiv, 2025).

pIC50: −log10 of the molar value. Where two headings read alike, the source gives them in different places.

T1 sequence (Q8NFA0 whole entry): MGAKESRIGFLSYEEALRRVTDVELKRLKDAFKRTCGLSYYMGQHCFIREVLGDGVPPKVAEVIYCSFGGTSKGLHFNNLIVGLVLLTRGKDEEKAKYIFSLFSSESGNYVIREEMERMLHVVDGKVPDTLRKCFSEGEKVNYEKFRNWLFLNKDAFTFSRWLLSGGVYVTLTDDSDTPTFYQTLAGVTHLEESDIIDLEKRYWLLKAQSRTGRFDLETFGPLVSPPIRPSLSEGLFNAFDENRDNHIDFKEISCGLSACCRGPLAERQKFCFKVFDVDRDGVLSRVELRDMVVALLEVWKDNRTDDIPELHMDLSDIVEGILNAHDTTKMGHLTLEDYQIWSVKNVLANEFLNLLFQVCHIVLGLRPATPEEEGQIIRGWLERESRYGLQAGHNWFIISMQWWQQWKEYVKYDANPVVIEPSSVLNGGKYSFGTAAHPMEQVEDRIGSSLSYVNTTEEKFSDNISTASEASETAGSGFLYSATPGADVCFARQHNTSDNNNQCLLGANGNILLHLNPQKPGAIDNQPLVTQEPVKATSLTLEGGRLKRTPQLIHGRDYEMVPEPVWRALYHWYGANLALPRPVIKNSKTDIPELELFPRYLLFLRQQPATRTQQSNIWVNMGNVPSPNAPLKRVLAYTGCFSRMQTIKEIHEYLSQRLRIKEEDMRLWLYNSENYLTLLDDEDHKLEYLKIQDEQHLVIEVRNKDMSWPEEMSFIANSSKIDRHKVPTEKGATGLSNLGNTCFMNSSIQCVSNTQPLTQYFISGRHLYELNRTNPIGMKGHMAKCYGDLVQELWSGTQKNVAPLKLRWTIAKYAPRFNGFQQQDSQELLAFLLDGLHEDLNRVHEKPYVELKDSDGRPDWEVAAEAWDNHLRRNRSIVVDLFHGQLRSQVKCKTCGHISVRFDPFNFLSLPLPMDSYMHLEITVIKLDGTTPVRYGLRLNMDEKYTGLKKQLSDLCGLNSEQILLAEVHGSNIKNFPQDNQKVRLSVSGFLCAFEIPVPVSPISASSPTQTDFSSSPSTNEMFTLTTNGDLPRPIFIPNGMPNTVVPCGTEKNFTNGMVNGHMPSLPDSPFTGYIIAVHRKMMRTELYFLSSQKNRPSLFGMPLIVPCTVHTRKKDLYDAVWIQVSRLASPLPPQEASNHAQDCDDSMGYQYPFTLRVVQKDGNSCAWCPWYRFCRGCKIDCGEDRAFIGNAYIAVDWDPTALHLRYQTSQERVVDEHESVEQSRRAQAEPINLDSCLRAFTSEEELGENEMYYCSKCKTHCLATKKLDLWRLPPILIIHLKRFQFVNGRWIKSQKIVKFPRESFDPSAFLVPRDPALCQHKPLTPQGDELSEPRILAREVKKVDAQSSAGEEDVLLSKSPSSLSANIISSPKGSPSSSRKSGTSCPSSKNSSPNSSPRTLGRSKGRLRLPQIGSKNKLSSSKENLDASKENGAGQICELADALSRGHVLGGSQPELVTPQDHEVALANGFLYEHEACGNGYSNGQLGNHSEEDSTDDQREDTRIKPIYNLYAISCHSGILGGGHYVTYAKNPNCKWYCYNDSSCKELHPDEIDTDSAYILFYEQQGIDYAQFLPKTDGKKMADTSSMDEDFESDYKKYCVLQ

What is called pIC50 is −log10 of the IC50, conventionally taken in molar units. Low values mean a high IC50, high ones a low IC50. Regarding `N#CN1CC[C@@H](NC(=O)C2CCN(S(=O)(=O)c3ccc(OCCN=[N+]=[N-])cc3)CC2)C1` [Huib32*], the pIC50 in assay [1] is 6.17.

As to `N#CN1CC[C@@H](NC(=O)C2CCN(S(=O)(=O)c3ccc(OCCn4cc(CNC(=O)CCCC[C@@H]5SC[C@@H]6NC(=O)N[C@@H]65)nn4)cc3)CC2)C1` [Huib32*2], in assay [1], the pIC50 is 6.58.

By kinact is commonly meant the maximal first-order rate at which the target is inactivated. For the compound `Cc1noc(C)c1S(=O)(=O)N1CCC(C(=O)N[C@@H]2CCN(C#N)C2)CC1` [BB01CA282, Huib32], the kinact/Ki in assay [2] is listed as 18,800 s^-1M^-1. For the same compound, in assay [3], the kinact worked out at 0.000222 s⁻¹. In assay [4], the KI (inactivation) turned out to be 11.8 nM.

Turning to `CCN1/C(=C/C=C/C=C/C2=[N+](CCCCCC(=O)NCCCc3cn(CCOc4ccc(S(=O)(=O)N5CCC(C(=O)N[C@@H]6CCN(C#N)C6)CC5)cc4)nn3)c3ccc(S(=O)(=O)[O-])cc3C2(C)C)C(C)(C)c2cc(S(=O)(=O)O)ccc21` [Huib32*1], in assay [1] (500 nM UbRhoMP, pH 7.6, 1 mM TCEP, RT, covalent), the pIC50 was 6.39.

As to `Cc1noc(C)c1S(=O)(=O)N1CCC(C(=O)N2CCC3(CCN(C#N)C3)C2)CC1` (centres unmarked) [BB14CA282], the kinact/Ki in assay [2] came out at 219 s^-1M^-1. The same compound showed a pIC50 in assay [1] of 6.29. Also, the kinact in assay [3] was found to be 0.000984 s⁻¹. The KI (inactivation) in assay [4] was 4490 nM.

In the case of `Cc1noc(C)c1S(=O)(=O)N1CCC(C(=O)N2CC3CC2CN3C#N)CC1` (centres unmarked) [BB12CA282], the kinact/Ki in assay [2] was 2,130 s^-1M^-1. In addition, in assay [1], the negative-log IC50 (pIC50) was 7.03. The kinact in assay [3] came out at 0.000324 s⁻¹. Moreover, the KI (inactivation) in assay [4] is 152 nM.
